Data on 1 molecule can be found in patent publication US20230149374A1, “METHODS AND COMPOSITIONS FOR TREATING ATHEROSCLEROSIS” (Sanford Burnham Prebys Medical Discovery Institute, priority 2021, published 2023).

Entries after “also recorded” stand apart in the source; their conditions may differ.

Data set [1] has as its system ApoE-deficient mice. Kind of data set: In vivo aortic calcification imaging, 18F-NaF μPET / μCT. Set-up: species or system mouse. Conditions: ApoE-deficient mice on HFD, 30 mg/kg/day in food from 10 to 25 weeks of age; control 6 out of 11. The text has this:
Four cohorts of mice were used in these studies (FIGS. 8A and 9A). Cohorts 1 and 2 were devoted to the in vivo and ex vivo characterization of TNAP-associated plaque calcification. 6-week-old ApoE-deficient male mice were received at the animal facility and placed in conventional cages with 5 mice per cage. Mice were maintained on a 12-hrs light-dark cycle (7:00 am-7:00 pm) and were supplied with food and water ad libitum. From 10 weeks of age, they were fed ad libitum with a high fat diet (HFD, D12108C, Research Diets, New Brunswick, USA) containing 40% fat (kcal) and 1.25% cholesterol (weight). In cohort 1, 8 mice were sacrificed every 2 weeks between weeks 17 to 31, for histological and molecular analyses. Total body weight was measured weekly after starting the HFD. The sacrifice was done after anesthesia with isoflurane and intracardiac blood puncture by CO2 inhalation. Tissues were harvested as described below. The abdominal aorta was used for quantitative polymerase chain reaction (PCR) analyses. […] Plaque calcification was analyzed at 25 weeks, and possible side effects of TNAP inhibition were explored in mice aged 31 weeks. […]
Mice were placed into a chamber connected to an isoflurane anesthesia unit. […] Images were analyzed using Inveon Research workplace (Siemens). The presence of atherosclerotic plaques was evaluated both in CT and PET images. […]

Data set [2] has as its system ApoE-deficient mice. Kind of data set: Quantitative PCR of transcript levels in the liver. The class given is in vivo, mouse. The conditions noted are these: 30 mg/kg/day, 25 weeks, vs control.
In data set [3] the test system is ApoE-deficient mice. The experiment in a line: NMR metabolomics of liver and kidney extracts. Type of data set: in vivo, mouse. Conditions: 30 mg/kg/day, vs control. An excerpt:
Four cohorts of mice were used in these studies (FIGS. 8A and 9A). Cohorts 1 and 2 were devoted to the in vivo and ex vivo characterization of TNAP-associated plaque calcification. 6-week-old ApoE-deficient male mice were received at the animal facility and placed in conventional cages with 5 mice per cage. Mice were maintained on a 12-hrs light-dark cycle (7:00 am-7:00 pm) and were supplied with food and water ad libitum. From 10 weeks of age, they were fed ad libitum with a high fat diet (HFD, D12108C, Research Diets, New Brunswick, USA) containing 40% fat (kcal) and 1.25% cholesterol (weight). In cohort 1, 8 mice were sacrificed every 2 weeks between weeks 17 to 31, for histological and molecular analyses. Total body weight was measured weekly after starting the HFD. The sacrifice was done after anesthesia with isoflurane and intracardiac blood puncture by CO2 inhalation. Tissues were harvested as described below. The abdominal aorta was used for quantitative polymerase chain reaction (PCR) analyses. Mice from cohort 2 were used to analyze aorta calcification with ^18F—NaF μPET and μCT and to compare the in vivo data with the ex vivo results obtained in cohort 1. Animals were transferred from the animal facility to the Cermep imaging platform. Cohorts 3 and 4 were used to determine in vivo and ex vivo the impact of TNAP inhibition on the vasculature, liver, bones, and kidneys. […] Plaque calcification was analyzed at 25 weeks, and possible side effects of TNAP inhibition were explored in mice aged 31 weeks. […]
Liver and kidney extraction and NMR measurement: The frozen tissues were weighed and then extracted using the methanol-chloroform-water system [2:2:1.425 (v/v/v)]. […] Deuterated phosphate buffer at pH=7.4 (200 mM) was added to the dried aqueous extract with sodium 2,2,3,3-tetradeutero-3-trimethylsilylpropionate (TSP) (Sigma-Aldrich) as internal chemical shift and quantification reference. ^1H NMR spectra were recorded at 298 K on a Bruker Avance spectrometer 500 equipped with a 5-mm TCI cryoprobe. […]

Consider `COc1ccc(Cl)cc1S(=O)(=O)Nc1cncc(C(N)=O)c1` [SBI-425], for which the “mice having calcifications, in vivo 18F-NaF μPET and μCT” value in the data set on ApoE-deficient mice [1] is 0 out of 12. Moreover, in the data set on ApoE-deficient mice [2], the “Abcg8 transcript level, liver” value was “did not change”; the “Cyp7a1 transcript level, liver” value is “did not change”; the “Cyp7b1 transcript level, liver” value is reported as “did not change”; the “Fas transcript level (fatty acid synthesis), liver” value is recorded as “nor were the levels of transcripts associated with fatty acid synthesis (Srebp1c, Fas) (FIGS. 6B-6G) changed”. Moreover, in the data set with ApoE-deficient mice [2], the “Hmgcr transcript level, liver” value is on record as “did not change”; the “Hp transcript level (liver inflammation)” value is listed as “unchanged”; the “Il1b transcript level (liver inflammation)” value is “unchanged”; the “Ly6g transcript level (liver inflammation)” value is recorded as “unchanged”. In the data set with ApoE-deficient mice [2], the “Scarb1 transcript level, liver” value is “did not change”; the “Srebp1c transcript level (fatty acid synthesis), liver” value is “nor were the levels of transcripts associated with fatty acid synthesis (Srebp1c, Fas) (FIGS. 6B-6G) changed”; the “Tnfa transcript level (liver inflammation)” value is “unchanged”. Moreover, in the data set on ApoE-deficient mice [3] (25 weeks), the kidney phosphocholine levels entry was “increased” and the liver phosphocholine levels result is reported as “decreased; also recorded: variations close to significance”. Also, the “liver or kidney metabolism (metabolomics, PLS-DA)” value in the data set with ApoE-deficient mice [3] is recorded as “did not evidence a significant impact; also recorded: did not significantly change”.
